From patent publication EP0278661A1, “A thiophosphoric acid ester as an insecticide, nematocide and acaricide” (priority 1987, dated 1988)

Experiments:
[1] = tested on: southern corn rootworm (Diabrotica undecimpunctata howardi BABER); assay: Soil treatment test against southern corn rootworm larvae (mortality); format: in vivo; settings: 48 h, 1 ppm active ingredient in soil, third instar larvae, two days after liberation
Protocol: The emulsifiable concentrate of each test compound formulated according to Formulation example 1 was diluted with water, and 5 ml of the resulting aqueous dilute liquor was mixed with 50 g of soil to make the concentration of active ingredient in soil 1 ppm. The soil was then placed in a polyethylene cup of 5.6 cm in diameter and 5.8 cm high, and two pieces of corn having roots of 2 to 3 cm long were planted. At the same time, ten third instar larvae of southern corn rootworm (Diabrotica undecimpunctata howardi BABER) were liberated in the cup. Two days after liberation, the number of the dead and alive larvae was counted to obtain mortality (%).

[2] = Acute oral toxicity in mouse (mortality); settings: in vivo; oral (stomach sound), 100 mg/kg, ICR mouse, observed for 7 days, 5 head per group; read-out: Mortality (%) at the dose of 100 mg/kg
Protocol: After fasting of about 24 hours, ICR series mouse was weighed by an electronic balance. A stomack sound for mouse was attached to a syringe filled with test solution, the syringe end was slid to innermost of the mouse's throat to insert it to the stomack, and a definite amount of the test solution was injected. 4 Hours after the administration, a bait and water were given to the mouse for 7 days to observe a mortality (5 head per group).

[3] = tested on: root-knot nematodes (Meloidogyne sp.); assay: Soil treatment test against root-knot nematodes on tomato plants (degree of root-knot); format: in vivo; design: key: -: No settlement; - to +: Not more than 10% as compared with untreated plot; +: 10% - 40% as compared with untreated plot; ++: 40% - 80% as compared with untreated plot; +++: The same as or more than untreated plot; settings: observed three weeks after planting
Protocol: The emulsifiable concentrate of each test compound formulated according to Formulation example 1 was diluted with water, and 5 ml of the resulting aqueous dilute liquor was mixed with 600 g of soil contaminated with root-knot nematodes (Meloidogyne sp.) to make the concentration of active ingredient in soil 4 or 1 ppm. The soil was placed in a polyethylene cup of 12 cm in diameter and 8 cm in height, and three tomato plants of 3 to 4 leaf stage were planted.

[4] = tested on: carmine spider mite (Tetranychus cinnabarinus); assay: Spray and soil drench test against carmine spider mite on kidney bean (degree of damage); format: in vivo; design: key: -: Little damage is observed.; +: Slight damage is observed.; ++: Same damage as in the untreated plot is observed; settings: 500 ppm spray plus soil drench, examined after 8 days
Protocol: Female adults of carmine spider mite (Tetranychus cinnabarinus) were made parasitic on the leaves of potted kidney bean in a primary leaf stage, at a rate of 10 adults per leaf, which had elapsed seven days after sowing, and stored in a constant-temperature room kept at 25°C. After six days, 15 ml of a dilute solution, previously prepared by diluting the emulsifiable concentrate of the following test compounds obtained according to Formulation example 1 with water so that the active ingredient concentration was 500 ppm, was sprayed thereon by means of a turn table. At the same time, soil drench was carried out with 2 ml of the dilute solution. After 8 days, the degree of damage of each kidney bean by mites was examined.
The degree of damage was classified into three stages, -, + and ++. - : Little damage is observed. + : Slight damage is observed. ++ : Same damage as in the untreated plot is observed.

[5] = concentration in the soil 1 ppm
[6] = concentration in the soil 4 ppm

SMILES	mortality at 1 ppm [1]	mortality at 168 h [2]	Extent of settlement [3, 5]	Extent of settlement [3, 6]	Degree of damage [4]
CCCSP(=O)(OCC)Oc1ccccc1 (stereo not drawn) [(A)]	70%	100%			
CCOP(=O)(Oc1ccccc1)SC(C)C (stereo not drawn) [(B)]	0%	100%	+++	+ (10% - 40% as compared with untreated plot)	
CCOP(=O)(Oc1ccccc1)SC(C)CC (stereo not drawn) [(C)]		100%	+++	- to + (Not more than 10% as compared with untreated plot)	
Cc1cc(Cl)ccc1/N=C/N(C)C [Chlorodimeform]					+
CCOP(=O)(Oc1ccccc1)SC(C)(C)C (stereo not drawn) [Present compound, S-tert-butyl O-ethyl O-phenyl phosphorothiolate]	100%	0%	- to + (Not more than 10% as compared with untreated plot)	-	-
